Consider 1 compound from patent US8143225B2 (priority 2002, dated 2012).

Data set [1] in a line: Bioavailability of desmopressin conventional tablets (Comparative Example 4). The following applies: male, human, in vivo, po, 200 μg. The source says:
Thirty-six healthy male volunteers (Caucasian, Black and Hispanic) were enrolled in this study, which was designed as an open label, single dose, 3-way crossover study.

Data set [2] concerns adult males and females treated for nocturia. Nature of the data set: Clinical observations in adult males and females treated with desmopressin for nocturia. The format is in vivo, human. The source says: Hyponatremia can result in seizures, cardiac arrhythmias, cerebral edema and death.
The conditions of data set [3]: human, in vivo, cited from earlier work.
The conditions of data set [4]: in vivo; cited from earlier work.
A short description of the next data set: clinical. As to conditions: male, human, in vivo. On the procedure:
Twenty-four healthy non-smoking male volunteers were enrolled in the present study. The study was designed as a one-centre, open-labelled, randomized, balanced, 4-way cross-over phase I study. […] Between the doses there was a washout period of 72 hours. In order to standardize the buccal mucosa before administration of the orodispersible tablet, the subjects were asked to avoid foods, chewing gun etc. Subjects were allowed to brush their teeth in the morning before dosing, but without toothpaste. […] 3.2 (Pharsight Corporation, US). […] Values below LOQ not followed by values above the LOQ are excluded from the NCA analysis, and set to zero in the descriptive statistics on concentrations.

Read-outs that look alike come from different tables or passages of the source.

As a reminder, the bioavailability is dose-corrected exposure relative to a reference, in per cent. As to `NC(=O)CC[C@@H]1NC(=O)[C@H](Cc2ccccc2)NC(=O)[C@H](Cc2ccc(O)cc2)NC(=O)CCSSC[C@@H](C(=O)N2CCC[C@H]2C(=O)N[C@H](CCCN=C(N)N)C(=O)NCC(N)=O)NC(=O)[C@H](CC(N)=O)NC1=O` [desmopressin, 1-desamino-8-D-arginine vasopressin], the bioavailability is 0.16% in data set [1] (oral 1×200 μg tablet (Comparative Example 2)); 0.13% in data set [1] (oral 2×100 μg tablets (Comparative Example 3)); 0.1-0.15% in data set [3] (po); 0.23 to 0.38% in “clinical”; 0.3% in the data set “clinical” (bioavailability). The incidence of nocturia entry in data set [2] (oral doses 100 to 400 mcg and intranasal doses 10 to 20 mcg) is on record as “decreased the incidence of nocturia”. The incidence of hyponatremia entry in data set [2] (standard oral doses 100 to 400 mcg and intranasal doses 10 to 20 mcg, nocturia patients) is recorded as “unexpectedly high incidence of hyponatremia”. Besides, the “% Bioavailability” value was “Intravenous (100) %” in data set [3] (iv), “Oral (0.1) %” in data set [3] (po) and “Subcutaneous (±90) %” in data set [3] (sc). Also, the absorption result in data set [4] is reported as “not significantly absorbed”.
